The text below walks through data of ChEMBL document CHEMBL3044694, “Induction of disease resistance by acibenzolar-S-methyl and o-hydroxyethylorutin against Botrytis cinerea in tomato plants” (Crop Prot, 2006).

Data set [1] has as its system Solanum lycopersicum. Description: Induction of systemic acquired resistance activity in Botrytis cinerea infected Solanum lycopersicum (tomato) leaves assessed as increase in H2O2 level at 0.3 mM applied as spray 24 hr prior to inoculation measured after 2 to 6 hr relative to untreated infected control. Format: functional, organism-based.
For data set [2], the system named is Solanum lycopersicum. Description: Induction of systemic acquired resistance activity in Botrytis cinerea infected Solanum lycopersicum (tomato) leaves assessed as increase in H2O2 level at 0.3 mM applied as spray 24 hr prior to inoculation measured after 2 to 6 hr relative to untreated control. It counts as functional, organism-based.
Data set [3] relates to Solanum lycopersicum. Nature of the data set: Phytotoxicity in Solanum lycopersicum (tomato) at 0.3 mM applied as spray. It counts as organism-based. Particulars: in vivo, other, 300 µM.
Data set [4] has as its system Solanum lycopersicum. Description: Induction of systemic acquired resistance activity in Botrytis cinerea infected Solanum lycopersicum (tomato) leaves assessed as increase in guaiacol peroxidase activity at 0.3 mM applied as spray 24 hr prior to inoculation measured after 6 to 48 hr by colorimetric assay relative to untreated infected control. It counts as functional, organism-based.

In data set [5] the test system is Solanum lycopersicum. Nature of the data set: Induction of systemic acquired resistance activity in Solanum lycopersicum (tomato) leaves assessed as decrease in hydroxyl radical generation at 0.3 mM applied as spray 24 hr prior to inoculation measured after 2 to 48 hr by TBARS assay relative to untreated control. Format: functional, organism-based.
Data set [6] has as its system Solanum lycopersicum. Nature of the data set: Induction of systemic acquired resistance activity in Botrytis cinerea infected Solanum lycopersicum (tomato) leaves assessed as increase in guaiacol peroxidase activity at 0.3 mM applied as spray 24 hr prior to inoculation measured after 6 to 48 hr by colorimetric assay relative to untreated control. Format: functional, organism-based.

Data set [7] relates to Solanum lycopersicum. Nature of the data set: Induction of systemic acquired resistance activity in Botrytis cinerea infected Solanum lycopersicum (tomato) leaves assessed as induction of superoxide anion radical generation at 0.3 mM applied as spray 24 hr prior to inoculation measured after 2 to 6 hr by nitro blue tetrazolium reduction assay relative to control. It counts as functional, organism-based.

The subject of data set [8] is Solanum lycopersicum. Nature of the data set: Induction of systemic acquired resistance activity in Botrytis cinerea infected Solanum lycopersicum (tomato) leaves assessed as visible lesions on leaf surface at 0.3 mM applied as spray 24 hr prior to inoculation measured after 14 days (reference value: 66%). It counts as functional.

Molecules are shown by their SMILES. Activity calls are given as the source filed them. No cut-off for these calls is given here.

Turning to `CSC(=O)c1cccc2nnsc12` [ACIBENZOLAR-S-METHYL], the result in the data set with Solanum lycopersicum [1], in the data set on Solanum lycopersicum [2], in the data set with Solanum lycopersicum [4], with Solanum lycopersicum [5], in the data set with Solanum lycopersicum [6] and in the data set with Solanum lycopersicum [7] was Active. Further, the Activity entry in the data set on Solanum lycopersicum [3] is “Non-toxic”; in the data set on Solanum lycopersicum [8], 27%.
